The values that follow come from patent US12479830B2, “Homopiperazinyl and homopiperidinyl quinazolin-4(3H)-one derivatives having multimodal activity against pain” (ESTEVE PHARMACEUTICALS, S.A., priority 2019, dated 2025).

Usually Ki stands for a measure of affinity in units of concentration, obtained from inhibition or displacement.

The target of assay [1] is Human α2δ-1 subunit of Cav2.2 calcium channel (Homo sapiens, UniProt P54289). Description: Human α2δ-1 subunit of Cav2.2 calcium channel assay ([3H]-gabapentin binding). Conditions: binding to the α2δ-1 subunit of voltage-gated calcium channels, expressed as Ki class; + also covers inhibition between 1% and 50%. A digest of the protocol: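 Affinity (Ki, five concentrations) or % inhibition at 1 or 10 μM, from displacement of 15 nM [3H]-gabapentin on human α2δ-1 membranes. Incubation 60 min, 27° C., Hepes-KOH 10 mM pH 7.4; 10 μM pregabalin defined non-specific binding; bound radioactivity counted after GF/C filtration.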
Chain of Human α2δ-1 subunit of Cav2.2 calcium channel (P54289 25-1103): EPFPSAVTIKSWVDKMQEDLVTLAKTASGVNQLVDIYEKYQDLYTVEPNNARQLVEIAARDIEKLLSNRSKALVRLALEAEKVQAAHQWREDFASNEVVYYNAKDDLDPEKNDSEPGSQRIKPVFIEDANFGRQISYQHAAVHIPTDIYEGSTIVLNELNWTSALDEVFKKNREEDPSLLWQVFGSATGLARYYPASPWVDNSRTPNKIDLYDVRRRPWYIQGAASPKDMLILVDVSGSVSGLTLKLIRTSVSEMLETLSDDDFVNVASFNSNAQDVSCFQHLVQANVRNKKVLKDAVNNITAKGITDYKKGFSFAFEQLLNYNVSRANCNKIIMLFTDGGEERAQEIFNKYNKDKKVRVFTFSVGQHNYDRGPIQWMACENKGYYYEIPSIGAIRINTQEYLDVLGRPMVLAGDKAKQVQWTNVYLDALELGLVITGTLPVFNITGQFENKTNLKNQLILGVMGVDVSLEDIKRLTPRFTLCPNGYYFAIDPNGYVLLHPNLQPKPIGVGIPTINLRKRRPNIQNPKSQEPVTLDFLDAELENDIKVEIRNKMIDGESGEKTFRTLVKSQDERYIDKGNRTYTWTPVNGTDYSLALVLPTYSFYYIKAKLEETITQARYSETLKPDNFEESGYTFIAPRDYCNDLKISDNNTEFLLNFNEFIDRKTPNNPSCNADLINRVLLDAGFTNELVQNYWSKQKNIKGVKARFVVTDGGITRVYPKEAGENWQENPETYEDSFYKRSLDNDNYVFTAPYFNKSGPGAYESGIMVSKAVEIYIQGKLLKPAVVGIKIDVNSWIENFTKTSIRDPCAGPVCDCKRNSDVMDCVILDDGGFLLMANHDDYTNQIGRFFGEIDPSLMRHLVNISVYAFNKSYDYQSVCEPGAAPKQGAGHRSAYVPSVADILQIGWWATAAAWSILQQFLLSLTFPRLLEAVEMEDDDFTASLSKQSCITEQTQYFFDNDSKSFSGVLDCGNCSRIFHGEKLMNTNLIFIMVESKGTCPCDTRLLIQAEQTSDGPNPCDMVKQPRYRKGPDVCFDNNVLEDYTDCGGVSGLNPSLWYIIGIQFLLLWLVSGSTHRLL

For assay [2], the target named is T1, Human σ1 receptor (Homo sapiens, UniProt Q99720).
T1 construct: expressed in transfected cells; host or cells: HEK-293
T1 sequence (Q99720 whole entry): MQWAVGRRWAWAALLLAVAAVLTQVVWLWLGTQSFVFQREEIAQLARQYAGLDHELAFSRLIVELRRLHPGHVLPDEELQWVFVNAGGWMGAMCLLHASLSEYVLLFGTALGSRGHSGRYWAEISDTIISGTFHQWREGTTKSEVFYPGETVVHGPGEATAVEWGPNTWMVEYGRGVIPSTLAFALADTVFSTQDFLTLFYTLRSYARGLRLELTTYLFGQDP
As to the kind of experiment: Human σ1 receptor radioligand assay ([3H](+)-pentazocine binding). Conditions: binding to the σ1 receptor, expressed as Ki class; + also covers inhibition between 1% and 50%. A digest of the protocol:
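Ki was derived from five test concentrations, or % inhibition was measured at a single 1 or 10 μM dose, against 5 nM [3H](+)-pentazocine. Incubation was 120 min at 37° C in 50 mM Tris-HCl pH 8 with 7 μg HEK-293 membranes, and 10 μM haloperidol set non-specific binding. Bound radioactivity was counted after filtration.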

In the case of `CCC[C@@H](c1nc2ccc(Br)cc2c(=O)n1CC)N1CCNC[C@H](O)C1` [Example 115, 6-bromo-3-ethyl-2-((S)-1-((S)-6-hydroxy-1,4-diazepan-1-yl)butyl)quinazolin-4(3H)-one], the Ki in assay [1] was over 5000 nM; in assay [2], over 1000 nM.
For `CCC[C@H](c1nc2ccc(Br)cc2c(=O)n1CC)N1CCNC[C@H](O)C1` [Example 116, 6-bromo-3-ethyl-2-((R)-1-((S)-6-hydroxy-1,4-diazepan-1-yl)butyl)quinazolin-4(3H)-one] the same measures were under 500 nM and over 1000 nM.
For `CCCC(c1nc2c(F)cc(OC)cc2c(=O)n1CC)N1CCCN(C)CC1` (stereo not shown) [Example 117, 3-ethyl-8-fluoro-6-methoxy-2-(1-(4-methyl-1,4-diazepan-1-yl)butyl)quinazolin-4(3H)-one] the same measures were 500 to 5000 nM and 500 to 1000 nM.
In the same order, the values of `CCC[C@H](c1nc2cc(F)c(Cl)cc2c(=O)n1CC)N1CCNC[C@H](C)C1` [Example 118, 6-Chloro-3-ethyl-7-fluoro-2-((R)-1-((S)-6-methyl-1,4-diazepan-1-yl)butyl)quinazolin-4(3H)-one] are under 500 nM and 500 to 1000 nM.
Turning to `CCC[C@H](c1nc2cc(F)c(Cl)cc2c(=O)n1CC)N1CCNC[C@@H](C)C1` [Example 119, 6-chloro-3-ethyl-7-fluoro-2-((R)-1-((R)-6-methyl-1,4-diazepan-1-yl)butyl)quinazolin-4(3H)-one], the Ki in assay [1] was under 500 nM; in assay [2] it was 500 to 1000 nM.
On to `CCC[C@@H](c1nc2cc(F)c(Cl)cc2c(=O)n1CC)N1CCNC[C@H](C)C1` [Example 120, 6-chloro-3-ethyl-7-fluoro-2-((S)-1-((S)-6-methyl-1,4-diazepan-1-yl)butyl)quinazolin-4(3H)-one], for which the values for the Ki in assay [1] and in assay [2] were over 5000 nM and over 1000 nM, respectively.
As to `CCC[C@@H](c1nc2cc(F)c(Cl)cc2c(=O)n1CC)N1CCNC[C@@H](C)C1` [Example 121, 6-chloro-3-ethyl-7-fluoro-2-((S)-1-((R)-6-methyl-1,4-diazepan-1-yl)butyl)quinazolin-4 (3H)-one], the Ki in assay [1] was over 5000 nM; in assay [2], over 1000 nM.
For `CCCC(c1nc2ccc(Br)cc2c(=O)[nH]1)N1CCCN(C)CC1` (stereo not shown) [Example 122, 6-bromo-2-(1-(4-methyl-1,4-diazepan-1-yl)butyl)quinazolin-4(3H)-one] the same measures were over 5000 nM and 500 to 1000 nM.
In the same order, the values of `CCC[C@H](c1nc2ccc(Br)cc2c(=O)n1CC)N1CCN(C)C[C@H](CO)C1` [Example 123, 6-Bromo-3-ethyl-2-((R)-1-((S)-6-(hydroxymethyl)-4-methyl-1,4-diazepan-1-yl)butyl)quinazolin-4(3H)-one] are under 500 nM and 500 to 1000 nM.
In the case of `CCC[C@@H](c1nc2ccc(Br)cc2c(=O)n1CC)N1CCN(C)C[C@@H](CO)C1` [Example 124, 6-bromo-3-ethyl-2-((S)-1-((R)-6-(hydroxymethyl)-4-methyl-1,4-diazepan-1-yl)butyl)quinazolin-4(3H)-one], the Ki in assay [1] is 500 to 5000 nM; in assay [2], over 1000 nM.
In the same order, the values of `CCC[C@H](c1nc2ccc(Br)cc2c(=O)n1CC)N1CCN(C)C[C@@H](CO)C1` [Example 125, 6-bromo-3-ethyl-2-((R)-1-((R)-6-(hydroxymethyl)-4-methyl-1,4-diazepan-1-yl)butyl)quinazolin-4(3H)-one] are 500 to 5000 nM and 500 to 1000 nM.
In the same order, the values of `CCC[C@@H](c1nc2ccc(Br)cc2c(=O)n1CC)N1CCN(C)C[C@H](CO)C1` [Example 126, 6-bromo-3-ethyl-2-((S)-1-((S)-6-(hydroxymethyl)-4-methyl-1,4-diazepan-1-yl)butyl)quinazolin-4(3H)-one] are 500 to 5000 nM and 500 to 1000 nM.
On to `CCC[C@H](c1nc2cc(F)c(Br)cc2c(=O)n1CC)N1CCN(C)C[C@H](C)C1` [Example 127, 6-Bromo-2-((R)-1-((S)-4,6-dimethyl-1,4-diazepan-1-yl)butyl)-3-ethyl-7-fluoroquinazolin-4(3H)-one], for which the Ki in assay [1] is under 500 nM; in assay [2] it was 500 to 1000 nM.
In the case of `CCC[C@@H](c1nc2cc(F)c(Br)cc2c(=O)n1CC)N1CCN(C)C[C@H](C)C1` [Example 128, 6-bromo-2-((S)-1-((S)-4,6-dimethyl-1,4-diazepan-1-yl)butyl)-3-ethyl-7-fluoroquinazolin-4(3H)-one], the values for the Ki in assay [1] and in assay [2] were over 5000 nM and over 1000 nM, respectively.
As for `CCC[C@@H](c1nc2cc(F)c(Br)cc2c(=O)n1CC)N1CCN(C)C[C@@H](C)C1` [Example 129, 6-bromo-2-((S)-1-((R)-4,6-dimethyl-1,4-diazepan-1-yl)butyl)-3-ethyl-7-fluoroquinazolin-4(3H)-one], the figures for the Ki in assay [1] and in assay [2] were 500 to 5000 nM and over 1000 nM, respectively.
For `CCC[C@H](c1nc2cc(F)c(Br)cc2c(=O)n1CC)N1CCN(C)C[C@@H](C)C1` [Example 130, 6-bromo-2-((R)-1-((R)-4,6-dimethyl-1,4-diazepan-1-yl)butyl)-3-ethyl-7-fluoroquinazolin-4 (3H)-one] the same measures were under 500 nM and 500 to 1000 nM.
For `CCC[C@H](c1nc2cc(Cl)c(Cl)cc2c(=O)n1CC)N1CCN(C)C[C@H](C)C1` [Example 131, 6,7-Dichloro-2-((R)-1-((S)-4,6-dimethyl-1,4-diazepan-1-yl)butyl)-3-ethylquinazolin-4(3H)-one] the same measures were under 500 nM and under 500 nM.
In the case of `CCC[C@H](c1nc2cc(Cl)c(Cl)cc2c(=O)n1CC)N1CCN(C)C[C@@H](C)C1` [Example 132, 6,7-dichloro-2-((R)-1-((R)-4,6-dimethyl-1,4-diazepan-1-yl)butyl)-3-ethylquinazolin-4(3H)-one], the Ki in assay [1] and in assay [2] was under 500 nM in each case.
Take `CCC[C@@H](c1nc2cc(Cl)c(Cl)cc2c(=O)n1CC)N1CCN(C)C[C@H](C)C1` [Example 133, 6,7-dichloro-2-((S)-1-((S)-4,6-dimethyl-1,4-diazepan-1-yl)butyl)-3-ethylquinazolin-4(3H)-one]: the Ki in assay [1] was over 5000 nM; in assay [2], over 1000 nM.
In the same order, the values of `CCC[C@@H](c1nc2cc(Cl)c(Cl)cc2c(=O)n1CC)N1CCN(C)C[C@@H](C)C1` [Example 134, 6,7-dichloro-2-((S)-1-((R)-4,6-dimethyl-1,4-diazepan-1-yl)butyl)-3-ethylquinazolin-4(3H)-one] are over 5000 nM and 500 to 1000 nM.
In the same order, the values of `CCC[C@H](c1nc2cc(F)c(Cl)cc2c(=O)n1CC)N1CCN(C)C[C@H](C)C1` [Example 135, 6-Chloro-2-((R)-1-((S)-4,6-dimethyl-1,4-diazepan-1-yl)butyl)-3-ethyl-7-fluoroquinazolin-4(3H)-one] are under 500 nM and under 500 nM.
For `CCC[C@H](c1nc2cc(F)c(Cl)cc2c(=O)n1CC)N1CCN(C)C[C@@H](C)C1` [Example 136, 6-chloro-2-((R)-1-((R)-4,6-dimethyl-1,4-diazepan-1-yl)butyl)-3-ethyl-7-fluoroquinazolin-4(3H)-one] the same measures were under 500 nM and 500 to 1000 nM.
Consider `CCC[C@@H](c1nc2cc(F)c(Cl)cc2c(=O)n1CC)N1CCN(C)C[C@H](C)C1` [Example 137, 6-chloro-2-((S)-1-((S)-4,6-dimethyl-1,4-diazepan-1-yl)butyl)-3-ethyl-7-fluoroquinazolin-4(3H)-one], for which the values for the Ki in assay [1] and in assay [2] were over 5000 nM and 500 to 1000 nM, respectively.
